ChEMBL document CHEMBL5360565, “Discovery of novel arylpiperazine-based DA/5-HT modulators as potential antipsychotic agents - Design, synthesis, structural studies and pharmacological profiling” (Eur J Med Chem, 2023)

Assay: in vitro
Settings: PAMPA, pH 7.4

Papp at 5 h [×10⁻⁶ cm/s]	SMILES
9.13	Cn1c(=O)c2c(ncn2C)n(C)c1=O [CAFFEINE]
0.006	CCN1CCCC1CNC(=O)c1cc(S(N)(=O)=O)ccc1OC (configuration not stated) [SULPIRIDE]
